Six compounds from ChEMBL document CHEMBL3886414, “Bicarbocyclic and tricarbocyclic ethynyl derivatives and uses of same” (2015) can be followed below.

Each structure is given as a SMILES string.

The target in the test is Metabotropic glutamate receptor 5 (Homo sapiens, UniProt P41594). Briefly: Calcium Mobilization Assay: The rmGluR5 or hmGluR5 was stably expressed in a HEK 293 cell line and gown in Dulbecco's Modified Eagle Medium (DMEM) (Invitrogen, Carlsbad, Calif.) with supplements (10% bovine calf serum, 4 mM glutamine, 100 units/mL penicillin, 100 μg/mL streptomycin and 0.75 mM G1418) at 37° C., 5% CO2. Twenty-four hours prior to assay, cells were seeded into 384-well black wall microtiter plates coated with poly-D-lysine. Just prior to assay, media was aspirated and cells dye-loaded (25 μL/well) with 3 μM Fluo-4/0.01% pluronic acid in assay buffer (Hank's Balanced Saline Solution (HBSS)): 150 mM NaCl, 5 mM KCl, 1 mM CaCl2, 1 mM MgCl2, plus 20 mM N-2-Hydroxyethylpiperazine-N′-2-ethanesulfonic acid (HEPES), pH 7.4, 0.1% bovine serum albumin (BSA) and 2.5 mM probenecid) for 1 hour in 5% CO2 at 37° C. After excess dye was discarded, cells were washed in assay buffer and layered with a final volume equal to 30 μL/well. Basal fluorescence is monitored in a fluorometri. It counts as functional, cell-based, HEK293. For orientation: Calcium assays in cells follow changes in intracellular calcium, usually with a dye or a luminescent sensor.
Metabotropic glutamate receptor 5, sequence (P41594 whole entry): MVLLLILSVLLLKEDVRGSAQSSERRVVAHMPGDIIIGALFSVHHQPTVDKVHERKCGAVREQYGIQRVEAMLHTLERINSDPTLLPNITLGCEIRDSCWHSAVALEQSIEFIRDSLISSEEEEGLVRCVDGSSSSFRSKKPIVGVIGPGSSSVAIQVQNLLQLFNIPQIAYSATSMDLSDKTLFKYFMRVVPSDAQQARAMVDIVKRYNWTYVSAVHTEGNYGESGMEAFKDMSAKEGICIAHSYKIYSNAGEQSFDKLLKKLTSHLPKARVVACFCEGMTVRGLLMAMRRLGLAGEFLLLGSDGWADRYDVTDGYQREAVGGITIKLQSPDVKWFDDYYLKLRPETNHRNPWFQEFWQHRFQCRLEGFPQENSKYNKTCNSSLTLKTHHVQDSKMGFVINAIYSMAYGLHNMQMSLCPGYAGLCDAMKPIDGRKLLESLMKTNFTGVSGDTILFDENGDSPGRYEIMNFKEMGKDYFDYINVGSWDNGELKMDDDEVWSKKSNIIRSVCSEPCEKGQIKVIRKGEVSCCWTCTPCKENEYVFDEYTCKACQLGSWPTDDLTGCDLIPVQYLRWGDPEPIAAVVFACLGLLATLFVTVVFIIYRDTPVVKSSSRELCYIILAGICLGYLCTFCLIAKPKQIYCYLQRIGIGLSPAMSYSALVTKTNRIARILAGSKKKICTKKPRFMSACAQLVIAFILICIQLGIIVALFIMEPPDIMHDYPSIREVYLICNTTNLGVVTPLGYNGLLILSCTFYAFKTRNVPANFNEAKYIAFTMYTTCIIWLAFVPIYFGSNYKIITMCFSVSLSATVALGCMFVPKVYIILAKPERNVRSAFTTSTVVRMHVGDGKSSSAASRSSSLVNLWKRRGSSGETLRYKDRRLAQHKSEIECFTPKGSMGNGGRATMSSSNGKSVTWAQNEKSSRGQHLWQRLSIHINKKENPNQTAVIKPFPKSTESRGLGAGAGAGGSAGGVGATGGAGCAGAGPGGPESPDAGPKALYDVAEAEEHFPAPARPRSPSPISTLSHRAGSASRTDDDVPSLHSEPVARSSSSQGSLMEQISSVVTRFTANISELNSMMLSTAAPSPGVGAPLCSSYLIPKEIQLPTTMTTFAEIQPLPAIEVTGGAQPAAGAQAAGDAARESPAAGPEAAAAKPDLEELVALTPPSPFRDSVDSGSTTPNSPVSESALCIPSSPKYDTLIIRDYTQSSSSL
Consider `Cc1cccc(C#C[C@]23CCC[C@](NC(=O)c4ccccn4)(CC2)C3)n1`, for which the IC50 (commonly the midpoint of a concentration-inhibition curve) was determined as 5.3 nM.
With `O=C(N[C@@]12CCC[C@@](C#Cc3ncccc3F)(CC1)C2)c1cnccn1` the figure was 9.3 nM; with `Cc1ccc(C#CC23CC4CC(C2)CC(NC(=O)c2cnccn2)(C4)C3)cn1`, 700 nM; with `O=C(NC12CCCC(C#Cc3cccc(F)c3)(CC1)C2)c1cnccn1` (stereo unspecified), 1.2 nM.
For the compound `Cc1cncc(C(=O)NC23CC4CC(CC(C#Cc5cccnc5)(C4)C2)C3)n1`, the IC50 amounted to 3.8 nM.
Consider `O=C(NC12CC3CC(CC(C#Cc4cnccn4)(C3)C1)C2)c1cncc(F)c1`, for which the IC50 came to 30 nM.
